Test results as given in patent US7951577B2, “Liquid crystals with reduced toxicity and applications thereof” (Wisconsin Alumni Research Foundation, priority 2003, dated 2011).
“Also recorded” adds a separate entry of the source. Where two headings read alike, the source gives them in different places.

Assays:
Human IgG = test: Test of antibody binding in lyotropic liquid crystals (FITC anti-Human IgG to immobilized Human IgG); details: 200 nM FITC anti-Human IgG in liquid crystal (10% DSCG), 4 hours, room temperature
[1] = Viscosity of lyotropic liquid crystals; assay type: physicochemical; details: DSCG 9% wt, Triton 60% wt, Brij 50% wt, AMO 20% wt
Experimental: Lyotropic liquid crystals were investigated for their biocompatibility and bio-inertness based on the following three criteria: (1) viscosity; (2) observed birefringence of the liquid crystal; and (3) protein binding activity when proteins are dissolved in the lyotropic liquid crystals. The stability of protein structure in the lyotropic liquid crystals is implicitly tested based on the evaluation of criterion (3). The binding activity of antibodies in the liquid crystal was tested by covalent attachment of an antibody to a solid surface and measurement of the binding of a fluorescently labeled antibody to the immobilized antibody.

[2] = test system: vesicular stomatitis virus (VSV); assay type: cell-based; details: 1.5×10^7 pfu VSV, 1 hour at 37° C., supernatant titrated after 2 days
[3] = test system: vesicular stomatitis virus (VSV); assay type: cell-based; details: 2×10^7 pfu VSV, room temperature, 30 minutes, 1 hour or 4 hours
pH of DSCG in water = assay type: physicochemical
HeLa cells [4] = test system: HeLa cells
Experimental: (§1) HeLa mammalian cell line (from human cervical cancer cells) were grown in poly-L-lysine (MW 30,000 to 70,000)-treated coverslips in a 12-well plate in MEM medium supplemented with 10% fetal bovine serum. HeLa cells were grown in tissue culture plates until the cells reached a confluency of 90 to 95% within 24 hrs and were maintained at 37° C. with 5% CO2.
(§2) After incubation for less than one day, the DMEM was removed, the cells washed with PBS, 250 μl of the liquid crystal solution was overlaid.
(§3) The overlaid cultures were incubated at 37° C. for 4 hours, at which time the liquid crystals were removed, the cells were washed with PBS, and 1 mL of medium DMEM was added back to the cells. The cells were then incubated in the medium at 37° C. for an additional 4 days and then evaluated for morphology and viability.

HeLa cells [5] = test: Effects of liquid crystals on HeLa cells (morphology and viability); details: DSCG in water; 30% (w/v) A3 in H2O; 21% (w/v) C14AO in H2O with 3% C10OH
Experimental: as §1, §2, §3

[6] = test system: SV-40 transformed human corneal epithelial cells (HCEC); assay type: cell-based; details: SV-40 HCEC, 4 hours under liquid crystal
[7] = test system: SV-40 human corneal epithelial cells (HCEC); test: TRANSWELL assay, prolonged (24 hour) exposure to liquid crystal, Calcein-AM readout; assay type: cell-based; details: 50 μL liquid crystal in upper chamber, confluent and sub-confluent SV-40 HCEC
Experimental: FIGS. 5A and 5B present the results of additional experiments to evaluate the toxicity of two different liquid crystals, 5CB and TL-205, following prolonged exposure to cells. For these experiments, TRANSWELL assays were carried out in which cell cultures were plated onto membranes in a TRANSWELL plate such that they were fed from below by liquid media while in continual contact with the liquid crystal, which was directly overlaid on the cells themselves. Briefly, SV-40 human corneal epithelial cells (HCEC) were grown in SHEM+10% fetal bovine serum. Cells were removed from T-75 tissue culture plates via trypsinization, and counted using a hemacytometer. Cells were plated onto TRANSWELL membranes (3 μm pore size, Corning, Inc., Corning, N.Y.) that allowed them to remain in contact with the liquid crystal as well as with the growth medium for 24 hours. Cells were plated at a concentration of 20,000 cells/well and allowed to grow. Some cells were tested at a density of confluence, approximately 45,000 cells (FIG. 5A), while another set was tested at a density of sub-confluence, approximately 30,000 cells/well (FIG. 5B). […] Calcein-AM was added to each well, and the cell fluorescence was measured to assess cell number. Fluorescence was read using a SYNERGY HT plate reader (Bio-Tek, Instruments, Inc., Winooksi, Vt.).

Compound	antibody binding activity in the lyotropic liquid crystal (in words) (Human IgG)	Viscosity [1]	VSV growth after inoculation of HeLa cells in the presence of liquid crystal [2]	VSV infectivity after incubation of virus with liquid crystal [3]	further results
CCCCCCCCCCCCCC[N+](C)(C)[O-] [AMO, tetradecyldimethylamineoxide]	preserve specific antibody binding activity	50-200 cp	–	–	–
Triton	interfered with antibody binding activities	>100 cp	–	–	–
O=C(O)c1cc(=O)c2c(OCC(O)COc3cccc4oc(C(=O)O)cc(=O)c34)cccc2o1 [DSCG, disodium chromoglycate]	FITC fluorescence was only found in the arrayed spots	0.5-30 cp	VSV can infect cells in the presence of DSCG	VSV is stable in the presence of DSCG; also recorded: the concentration of the virus had not changed significantly	pH (pH of DSCG in water): < 6; HeLa cells after liquid crystal removed and medium added back (HeLa cells [4]): proliferated well after the medium was added; appearance of HeLa cells during contact with liquid crystal (HeLa cells [4]): cells rounded up and detached from the surface
Laurate	interfered with antibody binding activities	1-100 cp	–	–	–
COCCOCCOCCOCc1c(C)c(COCCOCCOCCOC)c(C)c(COCCOCCOCCOC)c1C [A3]	–	–	no growth of VSV was observed	no growth of VSV was observed	appearance of HeLa cells during contact with liquid crystal (HeLa cells [5]): cell membranes started to show a rough appearance (blebbing) and the nuclei condensed
CCCCCc1ccc(-c2ccc(C#N)cc2)cc1 [5CB, 4-cyano-4′-pentylbiphenyl]	–	–	–	–	toxicity to cells (in words) [6]: toxic; cell viability after prolonged exposure [7]: appears to kill cells
